The source of these data is ChEMBL document CHEMBL1201862, “PubChem BioAssay data set” (2004).

Calls of active or inactive are those of the source.

The nature of assay [1]: Luminescence Cell-Based Dose Response to Identify Activators of 5'UTR Stem-Loop Driven Prion Protein mRNA Translation in H4-C Neuroglioblastoma Cells. [Related pubchem assays: 1829 (Project Summary), 1814 (Primary HTS)]. Format: functional.
Assay [2] is described as follows: Luminescence Cell-Based Dose Confirmation HTS to Identify Activators of 5'UTR Stem-Loop Driven Alpha-Synuclein mRNA Translation in H4 Neuroglioblastoma Cells. [Related pubchem assays: 1829 (Project Summary), 1814 (Primary HTS)]. The assay is classed as functional.
The nature of assay [3]: Luminescence Cell-Based Dose Response HTS to Identify Activators of Luciferase Translation or Activity in H4 […] Cells. [Related pubchem assays: 1829 (Project Summary), 1814 (Primary HTS)]. The assay is classed as functional.
The subject of the next assay is H4. Description: Luminescence Cell-Based Dose Response HTS to Identify Activators of 5'UTR Stem-Loop Driven Prion Protein mRNA Translation in H4 Neuroglioblastoma Cells. [Related pubchem assays: 1829 (Project Summary), 1814 (Primary HTS)]. The assay is classed as functional. Particulars: Homo sapiens.
The nature of assay [4]: Luminescence Cell-Based Dose Response to Identify Activators of Luciferase Translation or Activity in H4-C Neuroglioblastoma Cells. [Related pubchem assays: 1829 (Project Summary), 1814 (Primary HTS)]. Format: functional.
Assay [5] is described as follows: Luminescence Cell-Based Dose Confirmation to Identify Activators of 5'UTR Stem-Loop Driven Alpha-Synuclein mRNA Translation in H4 Neuroglioblastoma Cells. [Related pubchem assays: 1829 (Project Summary), 1814 (Primary HTS)]. The assay is classed as functional.
The next assay concerns the target T1, Coagulation factor XII (Homo sapiens, UniProt P00748).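 Further: activated factor XIIa alpha cleaving a fluorogenic AMC peptide substrate; inhibitor potency from loss of enzyme activity.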
T1 sequence (P00748 whole entry): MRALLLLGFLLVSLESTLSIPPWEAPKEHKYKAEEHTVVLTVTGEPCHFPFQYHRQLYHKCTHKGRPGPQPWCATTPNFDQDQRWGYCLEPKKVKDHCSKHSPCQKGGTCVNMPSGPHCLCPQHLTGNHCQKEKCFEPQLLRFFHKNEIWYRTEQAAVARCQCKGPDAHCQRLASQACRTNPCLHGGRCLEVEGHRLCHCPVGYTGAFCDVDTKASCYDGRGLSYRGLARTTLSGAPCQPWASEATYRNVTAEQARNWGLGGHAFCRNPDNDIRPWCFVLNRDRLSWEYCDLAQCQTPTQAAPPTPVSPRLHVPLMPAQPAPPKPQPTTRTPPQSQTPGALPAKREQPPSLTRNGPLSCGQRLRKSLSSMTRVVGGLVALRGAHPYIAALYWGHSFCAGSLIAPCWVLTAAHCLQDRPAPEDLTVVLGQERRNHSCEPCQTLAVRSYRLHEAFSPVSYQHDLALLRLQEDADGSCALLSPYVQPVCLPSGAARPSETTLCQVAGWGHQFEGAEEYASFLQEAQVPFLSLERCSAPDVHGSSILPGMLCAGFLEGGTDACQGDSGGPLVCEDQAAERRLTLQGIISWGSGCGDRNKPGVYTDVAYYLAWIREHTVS
Format: functional.

For assay [6], the target named is T2, Luciferin 4-monooxygenase (Photinus pyralis, UniProt P08659). Kind of assay: Counter Screen for Luciferase-based Assay Positives. [Related pubchem assays: 620, 618, 411 ].
The subject of another assay is HT-1080. Description: HT1080 cell viability loss – fluorescence readout (AID 620). Format: functional, cell-based. Particulars: Homo sapiens.
Assay [7] addresses T2, Luciferin 4-monooxygenase. Kind of assay: inhibition of purified Photinus pyralis luciferase – biochemical, luminescence, dose response (AID 1891).
Assay [8] in a line: Luminescence Cell-Based Dose Confirmation HTS to Identify Inhibitors of Platelet Dense Granule Release. [Related pubchem assays: 1663 (Primary HTS), 1678 (Summary of Project)]. Format: functional.
The target of a further assay is Prothrombin (Homo sapiens, UniProt P00734). Description: Thrombin 1536 HTS Dose Response Confirmation. [Related pubchem assays: 1046 (Thrombin 1536 HTS; hits were confirmed in this assay)]. Format: functional.
A short description of assay [9]: Luminescence-based cell-based high throughput dose response assay to identify activators of the DAF-12 from the parasite S. stercoralis (ssDAF-12). The assay is classed as functional.
The target of assay [10] is Glyceraldehyde-3-phosphate dehydrogenase (Homo sapiens, UniProt P04406).
Assay [11] has as its target T3, Alkaline phosphatase, tissue-nonspecific isozyme (Homo sapiens, UniProt P05186).
T3 sequence (P05186 whole entry): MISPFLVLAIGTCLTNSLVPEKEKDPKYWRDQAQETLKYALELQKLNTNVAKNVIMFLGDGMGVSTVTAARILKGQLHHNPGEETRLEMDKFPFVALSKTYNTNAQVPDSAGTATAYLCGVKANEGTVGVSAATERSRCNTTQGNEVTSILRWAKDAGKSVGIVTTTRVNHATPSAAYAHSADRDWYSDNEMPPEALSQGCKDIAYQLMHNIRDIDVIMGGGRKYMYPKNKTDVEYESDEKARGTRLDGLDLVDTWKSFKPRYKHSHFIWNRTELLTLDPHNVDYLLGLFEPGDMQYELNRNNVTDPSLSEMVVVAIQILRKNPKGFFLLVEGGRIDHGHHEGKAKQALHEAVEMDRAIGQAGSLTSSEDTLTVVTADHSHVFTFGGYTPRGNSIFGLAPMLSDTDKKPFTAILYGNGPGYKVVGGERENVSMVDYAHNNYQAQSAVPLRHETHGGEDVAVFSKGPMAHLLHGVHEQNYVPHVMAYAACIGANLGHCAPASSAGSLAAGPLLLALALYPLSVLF
Kind of assay: potency against alkaline phosphatase TNAP – biochemical, luminescent, dose response, SAR follow-up (AID 1056).

Assay [12] in a line: Trypanosoma cruzi growth suppression in host cells – NIH3T3 host cells, beta-gal luminescence, confirmation (AID 2044).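 Further: intracellular parasites grown in NIH/3T3 mouse fibroblasts as host cells; luminescent beta-galactosidase reporter signal from transgenic T. cruzi replicating inside host cells; inhibitors lower the luminescence signal.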 Format: functional, cell-based.
Assay [13] in a line: NIH3T3 cell viability loss – ATP luminescence, mouse fibroblasts, counter-screen, dose response (AID 2010).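 Further: cells exposed to compound for about 90 hours before reading.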 Format: functional, cell-based.
The nature of assay [14]: THP-1 cell cytotoxicity, dose response, cytotoxicity control for non-replicating M. tuberculosis project (AID 489025). The assay is classed as functional.
Assay [15] can be described thus: HepG2 cell cytotoxicity, dose response, cytotoxicity control for non-replicating M. tuberculosis project (AID 489018). The settings on record: Mycobacterium tuberculosis. Format: functional.
Assay [16] can be described thus: Vero E6 cell cytotoxicity, dose response, cytotoxicity control for non-replicating M. tuberculosis project, secondary assay (AID 492998). Particulars: Vero C1008. Format: functional, VeroE6.
For assay [17], the target named is Voltage-dependent T-type calcium channel subunit alpha-1H (Homo sapiens, UniProt O95180). Format: functional.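 Further: channel activity triggered by adding a high calcium stimulation buffer.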
A further assay has as its system HeLa. Kind of assay: ATP-based viability loss in HeLa cells – cell-based, CellTiter-Glo luminescence, cherry-pick samples, cytotoxicity control for MITF activator project, dose response (AID 540259). Particulars: Homo sapiens. The assay is classed as functional. Background: ATP-based viability assays read luminescence as a measure of living cells.
Another assay deals with INS1. Kind of assay: INS-1E survival protection against cytokine death – cell-based, luminescence, retest, dose response (AID 449756).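 Further: cell death triggered by IL-1 beta plus TNF-alpha plus IFN-gamma mixture; protective hits raise ATP signal compared with cytokine alone wells.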 The assay is classed as functional. The settings on record: Rattus norvegicus.
The nature of assay [18]: viability of uninfected HEp-2 cells – cell-based, HTS, cytotoxicity control for RSV inhibitor project, dose response (AID 2410). The settings on record: human respiratory syncytial virus. Format: functional.
Another assay concerns the target T4, Aminopeptidase N (Plasmodium falciparum FcB1/Columbia, UniProt O96935).
T4 sequence (O96935 whole entry): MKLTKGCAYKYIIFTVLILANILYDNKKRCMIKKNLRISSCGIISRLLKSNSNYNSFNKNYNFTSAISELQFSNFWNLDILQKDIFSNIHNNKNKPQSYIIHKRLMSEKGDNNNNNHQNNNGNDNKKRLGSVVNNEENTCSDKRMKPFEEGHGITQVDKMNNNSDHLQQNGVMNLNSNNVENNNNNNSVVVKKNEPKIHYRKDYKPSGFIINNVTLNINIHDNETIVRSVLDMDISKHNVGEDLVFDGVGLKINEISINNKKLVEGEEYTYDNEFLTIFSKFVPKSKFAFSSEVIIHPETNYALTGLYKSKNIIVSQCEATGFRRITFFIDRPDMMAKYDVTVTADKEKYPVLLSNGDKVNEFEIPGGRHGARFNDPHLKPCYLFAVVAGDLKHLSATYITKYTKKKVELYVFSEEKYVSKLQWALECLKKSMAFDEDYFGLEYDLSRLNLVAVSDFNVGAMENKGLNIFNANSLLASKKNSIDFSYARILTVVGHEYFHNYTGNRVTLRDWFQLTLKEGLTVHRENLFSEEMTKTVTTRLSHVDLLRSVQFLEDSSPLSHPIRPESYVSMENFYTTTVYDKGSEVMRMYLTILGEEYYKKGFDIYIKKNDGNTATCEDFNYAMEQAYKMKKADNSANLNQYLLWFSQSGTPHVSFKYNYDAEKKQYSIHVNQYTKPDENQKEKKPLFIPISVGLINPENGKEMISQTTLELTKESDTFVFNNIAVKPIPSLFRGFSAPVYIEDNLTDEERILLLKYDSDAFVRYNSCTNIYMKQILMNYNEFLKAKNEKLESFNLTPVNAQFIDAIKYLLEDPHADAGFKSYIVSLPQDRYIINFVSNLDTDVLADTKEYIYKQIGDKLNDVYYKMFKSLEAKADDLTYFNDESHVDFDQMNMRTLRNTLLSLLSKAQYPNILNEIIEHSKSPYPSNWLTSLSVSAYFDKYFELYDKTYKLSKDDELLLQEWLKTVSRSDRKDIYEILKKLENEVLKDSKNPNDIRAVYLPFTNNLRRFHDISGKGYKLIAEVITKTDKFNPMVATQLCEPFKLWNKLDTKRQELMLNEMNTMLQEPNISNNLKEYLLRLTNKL
Description: malaria alanyl aminopeptidase activity blockers – biochemical, fluorogenic H-Leu-NHMec substrate, 1536-well (AID 1445). Further details: species or system Plasmodium falciparum 3D7, 3D7.

A short description of assay [19]: HEK-293T cell viability reduction – luminescence, B-cell screen hits, cytotoxicity control for BCR NF-kB inhibitor project, dose response (AID 489021).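 Further: HEK-293T cells carrying an NF-kB luciferase reporter; cells exposed to compound for about 14 hours before viability readout.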 Format: functional, cell-based.

Chain of Glyceraldehyde-3-phosphate dehydrogenase (P04406 whole entry): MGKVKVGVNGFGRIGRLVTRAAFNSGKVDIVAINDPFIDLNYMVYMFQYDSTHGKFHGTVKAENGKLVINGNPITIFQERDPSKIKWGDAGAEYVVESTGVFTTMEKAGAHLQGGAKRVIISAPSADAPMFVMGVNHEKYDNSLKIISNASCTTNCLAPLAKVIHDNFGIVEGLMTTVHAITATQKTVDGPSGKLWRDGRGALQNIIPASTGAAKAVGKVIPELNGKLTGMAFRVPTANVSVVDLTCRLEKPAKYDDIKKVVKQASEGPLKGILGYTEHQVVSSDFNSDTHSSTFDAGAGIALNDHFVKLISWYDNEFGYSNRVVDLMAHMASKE
T2 sequence (P08659 whole entry): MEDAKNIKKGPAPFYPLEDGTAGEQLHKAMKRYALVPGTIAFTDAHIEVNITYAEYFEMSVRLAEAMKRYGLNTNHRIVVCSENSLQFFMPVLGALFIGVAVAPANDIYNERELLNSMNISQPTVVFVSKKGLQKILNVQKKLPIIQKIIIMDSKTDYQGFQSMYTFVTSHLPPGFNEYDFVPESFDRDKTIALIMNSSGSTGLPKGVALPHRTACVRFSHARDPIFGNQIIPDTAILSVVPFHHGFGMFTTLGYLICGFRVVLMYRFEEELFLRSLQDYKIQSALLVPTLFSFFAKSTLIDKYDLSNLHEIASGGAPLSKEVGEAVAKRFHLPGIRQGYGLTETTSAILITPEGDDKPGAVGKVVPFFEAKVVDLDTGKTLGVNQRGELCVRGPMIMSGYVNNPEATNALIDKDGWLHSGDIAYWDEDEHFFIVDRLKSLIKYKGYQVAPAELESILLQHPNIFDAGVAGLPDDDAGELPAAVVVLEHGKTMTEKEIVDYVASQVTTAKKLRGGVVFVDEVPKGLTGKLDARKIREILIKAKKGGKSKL
Chain of Voltage-dependent T-type calcium channel subunit alpha-1H (O95180 whole entry): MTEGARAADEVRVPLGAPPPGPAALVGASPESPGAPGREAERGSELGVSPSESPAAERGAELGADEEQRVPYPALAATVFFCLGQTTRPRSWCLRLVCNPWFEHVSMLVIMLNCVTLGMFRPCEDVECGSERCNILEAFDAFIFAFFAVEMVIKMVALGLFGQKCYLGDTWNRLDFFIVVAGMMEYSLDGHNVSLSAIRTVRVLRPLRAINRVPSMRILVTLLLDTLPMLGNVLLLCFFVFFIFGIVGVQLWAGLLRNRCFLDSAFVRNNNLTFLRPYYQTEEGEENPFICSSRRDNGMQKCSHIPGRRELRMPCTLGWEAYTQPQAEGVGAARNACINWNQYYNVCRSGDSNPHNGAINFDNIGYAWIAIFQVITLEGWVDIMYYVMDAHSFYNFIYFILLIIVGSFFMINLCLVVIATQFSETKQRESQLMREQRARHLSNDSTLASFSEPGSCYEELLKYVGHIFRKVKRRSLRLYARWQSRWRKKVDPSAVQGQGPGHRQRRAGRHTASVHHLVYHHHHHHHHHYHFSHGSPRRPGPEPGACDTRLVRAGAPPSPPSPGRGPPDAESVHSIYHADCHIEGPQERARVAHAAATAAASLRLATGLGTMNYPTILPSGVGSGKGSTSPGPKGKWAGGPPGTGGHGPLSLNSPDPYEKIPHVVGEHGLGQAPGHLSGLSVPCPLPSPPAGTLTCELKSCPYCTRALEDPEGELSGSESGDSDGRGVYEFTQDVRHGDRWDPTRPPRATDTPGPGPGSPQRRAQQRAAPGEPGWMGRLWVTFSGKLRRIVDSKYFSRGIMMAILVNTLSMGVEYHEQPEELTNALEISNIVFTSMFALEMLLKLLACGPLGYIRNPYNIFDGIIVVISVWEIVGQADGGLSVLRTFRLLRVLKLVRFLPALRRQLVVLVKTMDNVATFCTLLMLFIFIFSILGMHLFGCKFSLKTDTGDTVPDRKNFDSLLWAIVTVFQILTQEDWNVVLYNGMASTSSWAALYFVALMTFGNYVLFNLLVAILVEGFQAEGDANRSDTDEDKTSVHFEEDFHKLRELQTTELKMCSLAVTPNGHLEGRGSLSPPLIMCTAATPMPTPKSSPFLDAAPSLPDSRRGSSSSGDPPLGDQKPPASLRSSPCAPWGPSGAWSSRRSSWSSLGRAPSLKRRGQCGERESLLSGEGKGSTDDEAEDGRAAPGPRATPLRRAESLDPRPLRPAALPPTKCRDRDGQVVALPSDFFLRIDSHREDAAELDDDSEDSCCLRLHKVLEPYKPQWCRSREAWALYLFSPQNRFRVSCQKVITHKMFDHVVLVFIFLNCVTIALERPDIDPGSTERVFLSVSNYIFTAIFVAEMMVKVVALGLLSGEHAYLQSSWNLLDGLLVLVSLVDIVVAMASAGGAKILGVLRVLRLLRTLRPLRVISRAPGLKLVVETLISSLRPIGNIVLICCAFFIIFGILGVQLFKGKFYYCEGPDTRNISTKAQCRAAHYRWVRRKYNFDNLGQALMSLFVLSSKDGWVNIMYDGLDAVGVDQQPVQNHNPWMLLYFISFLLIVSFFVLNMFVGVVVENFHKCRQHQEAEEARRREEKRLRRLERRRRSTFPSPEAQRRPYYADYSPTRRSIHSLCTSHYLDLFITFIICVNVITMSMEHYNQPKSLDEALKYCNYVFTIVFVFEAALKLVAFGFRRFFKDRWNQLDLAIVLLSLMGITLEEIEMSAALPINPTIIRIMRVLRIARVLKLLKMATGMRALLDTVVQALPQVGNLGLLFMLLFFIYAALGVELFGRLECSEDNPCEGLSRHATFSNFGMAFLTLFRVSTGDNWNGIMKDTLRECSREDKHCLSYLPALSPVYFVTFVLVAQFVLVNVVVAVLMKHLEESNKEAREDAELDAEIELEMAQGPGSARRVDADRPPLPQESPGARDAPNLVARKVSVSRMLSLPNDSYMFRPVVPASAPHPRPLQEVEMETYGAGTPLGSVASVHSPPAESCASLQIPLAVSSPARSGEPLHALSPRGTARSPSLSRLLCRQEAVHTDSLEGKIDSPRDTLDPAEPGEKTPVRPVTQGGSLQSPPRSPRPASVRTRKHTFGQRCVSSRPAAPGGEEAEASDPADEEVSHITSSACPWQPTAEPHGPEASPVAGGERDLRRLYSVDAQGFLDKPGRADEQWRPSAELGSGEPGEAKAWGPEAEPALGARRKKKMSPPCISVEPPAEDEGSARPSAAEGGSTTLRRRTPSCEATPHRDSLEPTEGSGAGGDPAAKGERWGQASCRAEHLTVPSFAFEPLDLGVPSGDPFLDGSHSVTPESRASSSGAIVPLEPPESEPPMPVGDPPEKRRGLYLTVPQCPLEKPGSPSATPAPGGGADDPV

As for `Fc1cccc(Cl)c1Cc1noc(/C=C/c2ccccc2)n1`, the EC50 in assay [1] was > 12 µM (not active); in assay [2] it was < 0.1 µM (active); in [3], 70.3 µM (active); in the assay on H4 it was 4.36 µM (active); in assay [4], > 12 µM (not active); in assay [5] it was > 12 µM (not active).
Regarding `COc1ccc(Nc2nnc(SC(C(=O)Nc3cc(C)ccc3C)c3ccccc3)s2)cc1` (stereo not given), on Coagulation factor XII, the IC50 was > 50 µM (inactive).
Turning to `CN1CCN(c2ncnc3c2cnn3-c2ccc(Cl)cc2)CC1`, the EC50 in assay [6] is 0.55 µM (active); with HT-1080, > 50 µM (not active).
In the case of `Oc1cccc(-c2nc3ccccc3s2)c1`, the EC50 in assay [6] was 12.4 µM (active); in assay [7], 1.83 µM (active); in assay [8], 22.2 µM (active); with HT-1080, > 50 µM (not active). The IC50 was > 50 µM (not active) against Prothrombin and > 67.6 µM (inactive) in assay [9].
`O=C(/C=C\Nc1ccccn1)c1ccc(Cl)cc1`: the EC50 in assay [6] was 2.45 µM (active); in the assay with HT-1080, > 50 µM (not active).
With `Nc1ccc(-c2cc(C(=O)O)n[nH]2)cc1`, the IC50 in assay [10] is > 100 µM (not active); in assay [11], 8.69 µM (active).
`C/C(=N\NC(=O)c1ccc(CN2CCc3ccccc3C2)cc1)c1ccccc1O`: the EC50 in assay [12] is 1.06 µM (active); in [13] it was 3.88 µM (active). In addition, the CC50 in assay [14] was 15.3 µM (active); in [15], 10.7 µM (active); in assay [16], 13.9 µM (active).
Consider `Cc1ccc(CCNC(=O)C[S+]([O-])Cc2nc(-c3cccc(C)c3)oc2C)cc1` (stereo not given), for which, in assay [17], the EC50 is 4.04 µM (active).
Consider `Clc1ccc(-c2cn3c(n2)CCC3)cc1`, for which the EC50 is 0.397 µM (active) in assay [1]; < 0.1 µM (active) in [3]; > 120 µM (not active) in the assay with H4; 0.299 µM (active) in [4]; 0.319 µM (active) in assay [5]. Moreover, in the assay with HeLa, the AC50 is 173 µM (active).
For the molecule `CN(C)C1=C(Cl)C(=O)N(c2nnc(Cc3ccccc3)[nH]2)C1=O`, the IC50 was > 100 µM (not active) in assay [10] and 4.49 µM (active) in [11].
`O=C(Nc1ccc(OCC(=O)N2CCC(Cc3ccccc3)CC2)cc1)c1ccco1`: in assay [17], the EC50 is 2.36 µM (active). For the same molecule, the AC50 with INS1 is 5.93 µM (active).
Turning to `CCOC(=O)c1[nH]nc2c1COc1ccccc1-2`, the IC50 was > 100 µM (not active) in assay [10] and > 100 µM (inactive) in assay [11].
`COc1ccc(/C=C2/SC(=O)N(NS(=O)(=O)c3ccccc3)C2=S)cc1OC`: the CC50 in assay [18] was 31.5 µM (active). In addition, the IC50 at Aminopeptidase N was 30.5 µM (active); in “cells”, 18.8 µM (active).
Turning to `CS(=O)(=O)N(CC(=O)N/N=C/c1ccccc1C(=O)O)c1cccc(Cl)c1Cl`, on Coagulation factor XII, the IC50 is > 50 µM (inactive).
For `O=C(Nc1ccc(C(F)(F)F)cc1[N+](=O)[O-])O[C@H]1[C@H](Cc2ccccc2)NS(=O)(=O)[C@H]2C[C@@H]3C=C[C@]12O3`, the CC50 in [18] is 23 µM (active). Moreover, the IC50 in the assay “cells” was 24.6 µM (active).
On to `CCN1C(=O)c2cccc3c(S(=O)(=O)NCC4CCCO4)ccc1c23` (stereo not given), for which, in [19], the IC50 is > 80 µM (inactive).
Still for that read-out and setting: for `CCCCCCn1c(-c2ccco2)nc2oc3cc(OC)ccc3c(=O)c2c1=O` the value was > 80 µM (inactive).

For orientation: EC50 means the midpoint of the concentration-response curve. As a reminder, the IC50 is the concentration that inhibits the measured activity by half. Usually CC50 stands for the concentration giving 50% cytotoxicity. By AC50 is commonly meant the midpoint of the concentration-response curve, whichever way the signal moves.
